The record followed here is patent US20250206722A1, “SMALL MOLECULE INHIBITORS OF TEA DOMAIN FAMILY MEMBERS” (The Scripps Research Institute, priority 2022, published 2025).

The structures appear in SMILES notation. pIC50: −log10 of the molar value.

In one assay the test system is NCI-H226 cells. Put plainly: NCI-H226 proliferation assay (in house). The class given is cell-based. The following applies: Homo sapiens, 120 h, 5 days, Cell TiterGlo, 20-point 1:2 dilution from 20 μM. The method, then: NCI-H226 Proliferation Assay
NCI-H226 cells were obtained from American Type Culture Collection (ATCC, CRL-5826) and cultured in RPMI 1640 with L-glutamine (Corning, 10-040-CV) supplemented with 10% fetal bovine serum (Gibco, 10438-026) and 1% penicillin-streptomycin (Gibco, 15070063). Cells were trypsinized, resuspended in growth medium, and diluted to a concentrated of 10,000 cells/mL. 500 cells, 50 μL of cell suspension, per well were then plated in a white 384-well plate (Corning) and incubated at 37° C., 5% CO2. After 24 hours incubation, 100 nL of test compounds in DMSO, 20-point 1:2 dilution starting from 20 μM (final concentration) in triplicate, were transferred to each well using an Agilent Bravo instrument outfitted with a pintool head. Cells were incubated at 37° C., 5% CO2 for 5 days followed by the addition of 30 μL of Cell TiterGlo (Promega; diluted 1:6 in water) to each well and luminescence values recorded using an EnVision plate reader. […]

The test system of assay [1] is transcriptional activity of TEADs. Briefly: TEAD reporter assay (MCF7 TEAD-LUC reporter cells). In kind it is cell-based. As to conditions: Homo sapiens, 24 hours, BrightGlo luminescence. As for the experimental part:
MCF7 TEAD-LUC reporter cells were obtained from BPS Bioscience, Inc. and cultured in DMEM medium (Corning, 10-013-CV) supplemented with 10% fetal bovine serum (Gibco, 10438-026), 1% penicillin-streptomycin (Gibco, 15070063), 1% non-essential amino acids (Gibco, 15070063), and 10 μg/mL insulin (Sigma, 10516). Cells were trypsinized, resuspended in growth medium, and diluted to a concentrated of 100,000 cells/mL. 5,000 cells, 50 μL of cell suspension, per well were then plated in a white 384-well plate (Corning) and incubated at 37° C., 5% CO2. After 24 hours incubation, 100 nL of test compounds in DMSO, 20-point 1:2 dilution starting from 20 μM (final concentration) in triplicate, were transferred to each well using an Agilent Bravo instrument outfitted with a pintool head. Cells were incubated at 37° C., 5% CO2 for 24 hours followed by the addition of 30 μL of BrightGlo (Promega; diluted 1:3 in water) to each well and luminescence values recorded using an EnVision plate reader.
The in vitro assay results of the compounds in the present invention were included in Table 1. The compounds described herein, inhibited the transcriptional activity of TEADs, as assessed by decreased luminance from a TEAD reporter cell line (MCF7 TEAD-LUC) in response to compound treatment.

In the assay with NCI-H226 cells, `C=CC(=O)N1CC=C(c2ncccc2Oc2ccc(C(F)(F)F)nc2)CC1` [Example 136, 1-(3-((6-(trifluoromethyl)pyridin-3-yl)oxy)-3′,6′-dihydro-[2,4′-bipyridin]-1′(2′H)-yl)prop-2-en-1-one] gave an IC50 of 0.341 µM. The compound also gave a pIC50 in assay [1] of 7.18.

In turn, `C=C(F)C(=O)N1CC=C(c2cnc(C)nc2Oc2ccc(C(F)(F)F)nc2)CC1` [Example 130, 2-fluoro-1-(4-(2-methyl-4-((6-(trifluoromethyl)pyridin-3-yl)oxy)pyrimidin-5-yl)-3,6-dihydropyridin-1(2H)-yl)prop-2-en-1-one] registered an IC50 with NCI-H226 cells of 1.33 µM. In addition, in assay [1], the pIC50 was 8.96.

Compound `C=C(F)C(=O)N1CC=C(c2cccnc2Oc2cnc(C(F)(F)F)nc2)CC1` [Example 158, 2-fluoro-1-(2-((2-(trifluoromethyl)pyrimidin-5-yl)oxy)-3′,6′-dihydro-[3,4′-bipyridin]-1′(2′H)-yl)prop-2-en-1-one] came in with an IC50 in the assay on NCI-H226 cells of 0.027 µM. The same compound gave a pIC50 in assay [1] of 8.41.

Consider `O=C(COC(F)(F)F)N1CCN(c2nccnc2Nc2ccc(C(F)(F)F)cc2)CC1` [Example 190, 2-(trifluoromethoxy)-1-(4-(3-((4-(trifluoromethyl)phenyl)amino)pyrazin-2-yl)piperazin-1-yl)ethan-1-one], for which half-maximal inhibition with NCI-H226 cells (IC50) was put at 0.994 µM. In assay [1], this compound gave a pIC50 of 7.90.

`C=CC(=O)N1CCN(c2nccnc2C(=O)N2CCC(F)(F)CC2)CC1` [Example 104, 1-(4-(3-(4,4-difluoropiperidine-1-carbonyl)pyrazin-2-yl)piperazin-1-yl)prop-2-en-1-one] displayed an IC50 with NCI-H226 cells of 2.74 µM. In assay [1], the pIC50 is 5.65.

As for `C=CC(=O)N1CCN(c2nccnc2Nc2ccc(OCF)cc2)CC1` [Example 36, 1-(4-(3-((4-(fluoromethoxy)phenyl)amino)pyrazin-2-yl)piperazin-1-yl)prop-2-en-1-one], the IC50 in the assay on NCI-H226 cells turned out to be 5.04 µM. The same compound gave a pIC50 in assay [1] of 8.30.

In the case of `C=CC(=O)N1CCN(c2nccnc2C(=O)NC2CCC2)CC1` [Example 99, 3-(4-acryloylpiperazin-1-yl)-N-cyclobutylpyrazine-2-carboxamide], the concentration for half-maximal inhibition (IC50) in the assay on NCI-H226 cells came to 2.08 µM. In addition, in assay [1], the negative logarithm of the IC50 (pIC50) is 6.85.

`C=C(F)C(=O)N1CCC(c2cnc(C)nc2Oc2ccc(C(F)(F)F)nc2)CC1` [Example 132, 2-fluoro-1-(4-(2-methyl-4-((6-(trifluoromethyl)pyridin-3-yl)oxy)pyrimidin-5-yl)piperidin-1-yl)prop-2-en-1-one] showed an IC50 in the assay on NCI-H226 cells of 4.31 µM. Besides, the negative logarithm of the IC50 (pIC50) in assay [1] is 6.35.

Compound `C=CC(=O)N1CCN(c2nccnc2Cc2ccc(C(F)(F)F)cc2)CC1` [Example 98, 1-(4-(3-(4-(trifluoromethyl)benzyl)pyrazin-2-yl)piperazin-1-yl)prop-2-en-1-one] came in with an IC50 in the assay with NCI-H226 cells of 0.012 µM. Further, the negative logarithm of the IC50 (pIC50) in assay [1] is 9.05.

`C=CC(=O)N1CCC(c2nccnc2Nc2ccc(C(F)(F)F)nc2)CC1` [Example 61, 1-(4-(3-((6-(trifluoromethyl)pyridin-3-yl)amino)pyrazin-2-yl)piperidin-1-yl)prop-2-en-1-one]: the IC50 with NCI-H226 cells worked out at 0.257 µM. For the same compound, the pIC50 in assay [1] was 8.30.

In the assay on NCI-H226 cells, `C=CC(=O)N1CCN(c2ncccc2C(O)c2ccc(C(F)(F)F)nc2)CC1` (stereo not drawn) [Example 142, 1-(4-(3-(hydroxy(6-(trifluoromethyl)pyridin-3-yl)methyl)pyridin-2-yl)piperazin-1-yl)prop-2-en-1-one] registered an IC50 of 7.28 µM. In assay [1], the pIC50 is 8.64.

For `C=CC(=O)N[C@H]1C[C@H](Nc2nccnc2Nc2ccc(C(F)(F)F)cc2)C1` [Example 4, N-((1r,3r)-3-((3-((4-(trifluoromethyl)phenyl)amino)pyrazin-2-yl)amino)cyclobutyl) acrylamide], the IC50 in the assay on NCI-H226 cells stood at 23.9 µM. The same compound showed a negative-log IC50 (pIC50) in assay [1] of 8.10.

For `C=C(F)C(=O)N1CC=C(c2cccnc2Nc2ccc(OC(F)(F)F)nc2)CC1` [Example 148, 2-fluoro-1-(2-((6-(trifluoromethoxy)pyridin-3-yl)amino)-3′,6′-dihydro-[3,4′-bipyridin]-1′(2′H)-yl)prop-2-en-1-one], the IC50 in the assay with NCI-H226 cells was found to be 0.341 µM. In assay [1], this compound gave a pIC50 of 7.18.

For the compound `C=CC(=O)N1CC(Nc2nccnc2Nc2ccc(C(F)(F)F)nc2)C1` [Example 62, 1-(3-((3-((6-(trifluoromethyl)pyridin-3-yl)amino)pyrazin-2-yl)amino)azetidin-1-yl)prop-2-en-1-one], the IC50 in the assay with NCI-H226 cells worked out at 8.67 µM. The pIC50 in assay [1] was 7.97.

Compound `CN(C#N)C(=O)N1CCN(c2nccnc2Nc2ccc(C(F)(F)F)cc2)CC1` [Example 185, N-cyano-N-methyl-4-(3-((4-(trifluoromethyl)phenyl)amino)pyrazin-2-yl)piperazine-1-carboxamide] gave an IC50 with NCI-H226 cells of more than 20 µM. Also, in assay [1], the pIC50 is less than 4.70.

With `C=C(F)C(=O)N1CCN(c2ncccc2Nc2ccc(C(F)(F)F)nc2)CC1` [Example 135, 2-fluoro-1-(4-(3-((6-(trifluoromethyl)pyridin-3-yl)amino)pyridin-2-yl)piperazin-1-yl)prop-2-en-1-one], in the assay on NCI-H226 cells, inhibition was half-maximal at 1.67 µM (IC50). This compound had a pIC50 in assay [1] of 6.39.

Regarding `C=C(F)C(=O)NCC1CN(c2ccc(C(F)(F)F)nc2)c2nccnc2N1` (stereo not drawn) [Example 194], the 50% inhibitory concentration (IC50) with NCI-H226 cells was more than 20 µM. The pIC50 in assay [1] was 6.62.

For the compound `C=CC(=O)N1CC=C(c2nccnc2Oc2ccc(C(F)(F)F)nc2)CC1` [Example 84, 1-(4-(3-((6-(trifluoromethyl)pyridin-3-yl)oxy)pyrazin-2-yl)-3,6-dihydropyridin-1(2H)-yl)prop-2-en-1-one], the IC50 with NCI-H226 cells turned out to be 0.0173 µM. Also, in assay [1], the pIC50 is 8.85.

For `C=C(F)C(=O)N1CCN(c2nccnc2NC2C3CC2C3C(F)(F)F)CC1` (stereo not drawn) [Example 68, 2-fluoro-1-(4-(3-((4-(trifluoromethyl)bicyclo[1.1.1]pentan-2-yl)amino)pyrazin-2-yl)piperazin-1-yl)prop-2-en-1-one], in the assay on NCI-H226 cells, the IC50 was 0.708 µM. Besides, the pIC50 in assay [1] is 7.96.

Take `C=CC(=O)N1CCN(c2ncc(O)nc2Nc2ccc(C(F)(F)F)cc2)CC1` [Example 111, 1-(4-(5-hydroxy-3-((4-(trifluoromethyl)phenyl)amino)pyrazin-2-yl)piperazin-1-yl)prop-2-en-1-one]: the IC50 with NCI-H226 cells worked out at 5.64 µM. The pIC50 in assay [1] was 6.62.

`C=C(CN1CC(c2nccnc2Oc2ccc(C(F)(F)F)nc2)C1)C(=O)O` [Example 86, 2-((3-(3-((6-(trifluoromethyl)pyridin-3-yl)oxy)pyrazin-2-yl)azetidin-1-yl)methyl)acrylic acid]: the IC50 with NCI-H226 cells came to 3.01 µM. Further, the pIC50 in assay [1] is 4.51.

For `C=C(F)C(=O)N1CC(Nc2nccnc2Nc2ccc(OC(F)(F)F)nc2)C1` [Example 64, 2-fluoro-1-(3-((3-((6-(trifluoromethoxy)pyridin-3-yl)amino)pyrazin-2-yl)amino)azetidin-1-yl)prop-2-en-1-one], in the assay on NCI-H226 cells, the IC50 worked out at 3.12 µM. The pIC50 in assay [1] is 5.77.

In the case of `C=CC(=O)N1CCN(c2nccnc2Nc2ccc(C(F)(F)F)nc2)C[C@H]1C` [Example 54, (R)-1-(2-methyl-4-(3-((6-(trifluoromethyl)pyridin-3-yl)amino)pyrazin-2-yl)piperazin-1-yl)prop-2-en-1-one], the IC50 in the assay on NCI-H226 cells came out at 0.192 µM. Further, the pIC50 in assay [1] was 8.05.

As to `C=C(F)C(=O)N1CC=C(c2cccnc2Nc2ccc(C(F)(F)F)nc2)CC1` [Example 146, 2-fluoro-1-(2-((6-(trifluoromethyl)pyridin-3-yl)amino)-3′,6′-dihydro-[3,4′-bipyridin]-1′(2′H)-yl)prop-2-en-1-one], in the assay with NCI-H226 cells, the IC50 came to 0.158 µM. The compound also gave a pIC50 in assay [1] of 7.63.

Turning to `N#C/C=C/C(=O)N1CCN(c2nccnc2Nc2ccc(C(F)(F)F)nc2)CC1` [Example 183, (E)-4-oxo-4-(4-(3-((6-(trifluoromethyl)pyridin-3-yl)amino)pyrazin-2-yl)piperazin-1-yl)but-2-enenitrile], in the assay on NCI-H226 cells, the IC50 is 0.422 µM. Besides, the pIC50 in assay [1] is 7.47.

In the assay with NCI-H226 cells, `C=C(F)C(=O)N1CC=C(c2nccnc2Nc2ccc(C(F)(F)F)nc2)CC1` [Example 56, 2-fluoro-1-(4-(3-((6-(trifluoromethyl)pyridin-3-yl)amino)pyrazin-2-yl)-3,6-dihydropyridin-1(2H)-yl)prop-2-en-1-one] returned an IC50 of 0.145 µM. Further, the pIC50 in assay [1] is 7.78.

Compound `C=CC(=O)N1CCN(c2ncccc2C(=O)c2ccc(C(F)(F)F)cn2)CC1` [Example 140, 1-(4-(3-(5-(trifluoromethyl)picolinoyl)pyridin-2-yl)piperazin-1-yl)prop-2-en-1-one] displayed an IC50 in the assay on NCI-H226 cells of 11.1 µM. The pIC50 in assay [1] was 8.07.
